Laboratory results reported in PubChem BioAssay AID1963837 (Molecular Pharmacology Branch, DTP, NCI, 2024).

Test system: 843126-344-R-J1-PDC complex spheroid viability
Assay: Anticancer human tumor 843126-344-R-J1-PDC patient-derived melanoma cell line growth inhibition [POLQ]
Settings: for IC50: curve of first compound; for viability, T/C: stronger effect = lower value
Outline: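 Three-cell-type spheroids modelling solid tumor plus stroma served as the readout system; POL inhibitors were tested individually and in combination, concentration ranges set by clinical Cmax where known.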

[1] = second compound 0.0316 µM, first compound 0.0316 µM
[2] = second compound 0.0316 µM, first compound 0.1 µM
[3] = second compound 0.0316 µM, first compound 0.316 µM
[4] = second compound 0.0316 µM, first compound 1 µM
[5] = second compound 0.1 µM, first compound 0.0316 µM
[6] = second compound 0.1 µM, first compound 0.1 µM
[7] = second compound 0.1 µM, first compound 0.316 µM
[8] = second compound 0.1 µM, first compound 1 µM
[9] = second compound 0.316 µM, first compound 0.0316 µM
[10] = second compound 0.316 µM, first compound 0.1 µM
[11] = second compound 0.316 µM, first compound 0.316 µM
[12] = second compound 0.316 µM, first compound 1 µM
[13] = second compound 1 µM, first compound 0.0316 µM
[14] = second compound 1 µM, first compound 0.1 µM
[15] = second compound 1 µM, first compound 0.316 µM
[16] = second compound 1 µM, first compound 1 µM
[17] = second compound 3.16 µM, first compound 0.0316 µM
[18] = second compound 3.16 µM, first compound 0.1 µM
[19] = second compound 3.16 µM, first compound 0.316 µM
[20] = second compound 3.16 µM, first compound 1 µM
[21] = second compound 10 µM, first compound 0.0316 µM
[22] = second compound 10 µM, first compound 0.1 µM
[23] = second compound 10 µM, first compound 0.316 µM
[24] = second compound 10 µM, first compound 1 µM
[25] = second compound 0.0316 µM, first compound 3.16 µM
[26] = second compound 0.0316 µM, first compound 10 µM
[27] = second compound 0.1 µM, first compound 3.16 µM
[28] = second compound 0.1 µM, first compound 10 µM
[29] = second compound 0.316 µM, first compound 3.16 µM
[30] = second compound 0.316 µM, first compound 10 µM
[31] = second compound 1 µM, first compound 3.16 µM
[32] = second compound 1 µM, first compound 10 µM
[33] = second compound 3.16 µM, first compound 3.16 µM
[34] = second compound 3.16 µM, first compound 10 µM
[35] = second compound 10 µM, first compound 3.16 µM
[36] = second compound 10 µM, first compound 10 µM
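Throughout, for viability, T/C: spheroids exposed to drugs for seven days before readout.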

C=CCn1c(=O)c2cnc(Nc3ccc(N4CCN(C)CC4)cc3)nc2n1-c1cccc(C(C)(C)O)n1 + Nc1ccc(C#CCN(C(=O)Cc2ncc(C(F)(F)F)cc2C(F)(F)F)c2ccc(F)cc2)nn1
IC50 (second compound 0.0316 µM): > 1 µM
IC50 (second compound 0.1 µM): > 1 µM
IC50 (second compound 0.316 µM): > 1 µM
IC50 (second compound 1 µM): > 1 µM
IC50 (second compound 3.16 µM): > 1 µM
IC50 (second compound 10 µM): > 1 µM
viability, T/C (second compound 0.0316 µM, first compound 0.00316 µM): 93.9%
viability, T/C (second compound 0.0316 µM, first compound 0.01 µM): 81.2%
viability, T/C [1]: 98.9%
viability, T/C [2]: 110%
viability, T/C [3]: 101%
viability, T/C [4]: 81.9%
viability, T/C (second compound 0.1 µM, first compound 0.00316 µM): 91.9%
viability, T/C (second compound 0.1 µM, first compound 0.01 µM): 92.1%
viability, T/C [5]: 104%
viability, T/C [6]: 85.9%
viability, T/C [7]: 86.5%
viability, T/C [8]: 77.6%
viability, T/C (second compound 0.316 µM, first compound 0.00316 µM): 95.1%
viability, T/C (second compound 0.316 µM, first compound 0.01 µM): 90.7%
viability, T/C [9]: 98.8%
viability, T/C [10]: 105%
viability, T/C [11]: 93.6%
viability, T/C [12]: 72%
viability, T/C (second compound 1 µM, first compound 0.00316 µM): 106%
viability, T/C (second compound 1 µM, first compound 0.01 µM): 80.8%
viability, T/C [13]: 87.7%
viability, T/C [14]: 90.4%
viability, T/C [15]: 85.4%
viability, T/C [16]: 86.4%
viability, T/C (second compound 3.16 µM, first compound 0.00316 µM): 91.2%
viability, T/C (second compound 3.16 µM, first compound 0.01 µM): 84.2%
viability, T/C [17]: 92.5%
viability, T/C [18]: 106%
viability, T/C [19]: 75%
viability, T/C [20]: 59.8%
viability, T/C (second compound 10 µM, first compound 0.00316 µM): 94.1%
viability, T/C (second compound 10 µM, first compound 0.01 µM): 83.7%
viability, T/C [21]: 84.5%
viability, T/C [22]: 91.9%
viability, T/C [23]: 79.1%
viability, T/C [24]: 74.5%

CCc1cc2c(N3CCc4c(cc(Cn5ccnc5)cc4-c4cn(C)nc4C(F)(F)F)C3=O)cc(C)nc2c(OC)n1 + COC1C(OC(N)=O)C(O)C(Oc2ccc3c(O)c(NC(=O)c4ccc(O)c(CC=C(C)C)c4)c(=O)oc3c2C)OC1(C)C
IC50 (second compound 0.0316 µM): > 10 µM
IC50 (second compound 0.1 µM): 8.91 µM
IC50 (second compound 0.316 µM): > 10 µM
IC50 (second compound 1 µM): > 10 µM
IC50 (second compound 3.16 µM): > 10 µM
IC50 (second compound 10 µM): > 10 µM
viability, T/C [1]: 103%
viability, T/C [2]: 78%
viability, T/C [3]: 89.6%
viability, T/C [4]: 74.5%
viability, T/C [25]: 74.3%
viability, T/C [26]: 59.8%
viability, T/C [5]: 90.6%
viability, T/C [6]: 87.1%
viability, T/C [7]: 89%
viability, T/C [8]: 81.1%
viability, T/C [27]: 64.6%
viability, T/C [28]: 48.4%
viability, T/C [9]: 96.2%
viability, T/C [10]: 80.6%
viability, T/C [11]: 72.4%
viability, T/C [12]: 68.2%
viability, T/C [29]: 74.2%
viability, T/C [30]: 56.4%
viability, T/C [13]: 76.9%
viability, T/C [14]: 67.4%
viability, T/C [15]: 69.4%
viability, T/C [16]: 68.5%
viability, T/C [31]: 72.4%
viability, T/C [32]: 71.3%
viability, T/C [17]: 91.1%
viability, T/C [18]: 77.4%
viability, T/C [19]: 76.9%
viability, T/C [20]: 62.5%
viability, T/C [33]: 72.7%
viability, T/C [34]: 61.8%
viability, T/C [21]: 82.1%
viability, T/C [22]: 96.1%
viability, T/C [23]: 84.2%
viability, T/C [24]: 66.2%
viability, T/C [35]: 58.5%
viability, T/C [36]: 62.6%

O=C(Nc1ccc(O)c(NS(=O)(=O)c2ccc(F)cc2)c1)c1ccc(-c2ccccc2)cc1 + COC1C(OC(N)=O)C(O)C(Oc2ccc3c(O)c(NC(=O)c4ccc(O)c(CC=C(C)C)c4)c(=O)oc3c2C)OC1(C)C
IC50 (second compound 0.0316 µM): > 10 µM
IC50 (second compound 0.1 µM): > 10 µM
IC50 (second compound 0.316 µM): > 10 µM
IC50 (second compound 1 µM): > 10 µM
IC50 (second compound 3.16 µM): > 10 µM
IC50 (second compound 10 µM): > 10 µM
viability, T/C [1]: 118%
viability, T/C [2]: 105%
viability, T/C [3]: 100%
viability, T/C [4]: 119%
viability, T/C [25]: 99%
viability, T/C [26]: 69.4%
viability, T/C [5]: 94.3%
viability, T/C [6]: 93.8%
viability, T/C [7]: 119%
viability, T/C [8]: 99.6%
viability, T/C [27]: 87.9%
viability, T/C [28]: 61.9%
viability, T/C [9]: 92.8%
viability, T/C [10]: 98.3%
viability, T/C [11]: 113%
viability, T/C [12]: 95.5%
viability, T/C [29]: 91.8%
viability, T/C [30]: 73.1%
viability, T/C [13]: 90.9%
viability, T/C [14]: 85.3%
viability, T/C [15]: 91.9%
viability, T/C [16]: 98.9%
viability, T/C [31]: 112%
viability, T/C [32]: 89.3%
viability, T/C [17]: 95.5%
viability, T/C [18]: 93.9%
viability, T/C [19]: 92.9%
viability, T/C [20]: 93.8%
viability, T/C [33]: 89.4%
viability, T/C [34]: 76.3%
viability, T/C [21]: 82.6%
viability, T/C [22]: 78.8%
viability, T/C [23]: 97.1%
viability, T/C [24]: 94.5%
viability, T/C [35]: 86.8%
viability, T/C [36]: 79.7%
